Reference: patent US6620828B2, “Thiazole compounds and pharmaceutical compositions for inhibiting protein kinases and methods for their use” (Agouron Pharmaceuticals, Inc., priority 1999, dated 2003)

Tests used:
CDK2/Cyclin A complex = CDK2/Cyclin A complex (Homo sapiens, UniProt P24941); test: CDK2/Cyclin A assay; format: biochemical; conditions: Table 2
Procedure, shortened: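 Radiometric assay: 150 nM CDK2/cyclin A (insect-cell CDK2, truncated cyclin A) phosphorylates His-tagged Rb fragment (residues 386-928) with 25 μM ATP plus [32P]ATP, pH 7.4 HEPES, 2% DMSO, 30 °C for 20 min. Filter-captured product counted by phosphorimager; apparent Ki from competitive or tight-binding inhibition fits.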

[1] = biological target: T1, phosphorylated VEGF-R2Δ50 (FLVK-P) (Homo sapiens, UniProt P35968, DEL940-989/E990V); test: VEGF-R2 coupled spectrophotometric (FLVK-P) assay; format: biochemical; conditions: Table 2; spectrophotometric assay
T1 construct: VEGF-R2Δ50 contains residues 806-939 and 990-1171; made in house; host or cells: baculovirus/insect cells
Procedure, shortened: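 Baculovirus-expressed human VEGF-R2Δ50 (residues 806-939/990-1171, E990V) was autophosphorylated with 3 mM ATP, 40 mM MgCl2 for 2 h at 4° C. ADP formation was coupled via PK/LDH to NADH oxidation, read at 340 nm, with 5.1 mM poly(E4Y1), 1 mM ATP, 25 mM MgCl2, Hepes pH 7.5. Ki came from activity across compound concentrations.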

T1 sequence (P35968 with tags, fused parts or gaps DEL940-989/E990V limits assumed): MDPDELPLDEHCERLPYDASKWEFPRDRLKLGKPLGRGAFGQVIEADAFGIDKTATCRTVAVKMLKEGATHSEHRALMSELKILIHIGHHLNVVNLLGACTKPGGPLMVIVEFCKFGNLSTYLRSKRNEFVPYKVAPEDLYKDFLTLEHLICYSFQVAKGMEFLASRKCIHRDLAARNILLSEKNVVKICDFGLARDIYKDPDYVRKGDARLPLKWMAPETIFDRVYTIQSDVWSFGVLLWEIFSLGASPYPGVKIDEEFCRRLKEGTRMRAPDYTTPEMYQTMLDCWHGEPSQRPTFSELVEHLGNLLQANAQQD

Structure (SMILES) | Ki (CDK2/Cyclin A complex) | Ki [1]
COc1cc(Nc2nc(N)c(-c3nc(-c4cccc(O)c4)cs3)s2)cc(OC)c1OC [A(17), 3-[4′-Amino-2′-(3,4,5-trimethoxy-phenylamino)-[2,5′]bithiazolyl-4-yl]-phenol] | 2100 nM | 3 nM
CCCNc1nc(N)c(-c2nc(-c3cccc(O)c3)cs2)s1 [A(29), 3-(4′-Amino-2′-propylamino-[2,5′]bithiazolyl-4-yl)-phenol] | 6400 nM | 78 nM
COc1cc(Nc2nc(N)c(-c3nc(-c4cccc(O)c4)no3)s2)cc(OC)c1OC [K(1), 3-{5-[4-Amino-2-(3,4,5-trimethoxy-phenylamino)-thiazol-5-yl]-[1,2,4]oxadiazol-3-yl}-phenol] | 620 nM | 6 nM
